According to ChEMBL document CHEMBL1136101, “An evaluation of a C-glucuronide as a liver targeting group: conjugate of a glucocorticoid antagonist” (Bioorg Med Chem Lett, 2003):

Tests used:
[1] = target: T1, Glucocorticoid receptor (Rattus norvegicus, UniProt P06536); experiment: Inhibition of prednisilone-induced tyrosine aminotransferase (TAT) activity in rat hepatocytes; type: cell-based, Hepatocyte
T1 sequence (P06536 whole entry): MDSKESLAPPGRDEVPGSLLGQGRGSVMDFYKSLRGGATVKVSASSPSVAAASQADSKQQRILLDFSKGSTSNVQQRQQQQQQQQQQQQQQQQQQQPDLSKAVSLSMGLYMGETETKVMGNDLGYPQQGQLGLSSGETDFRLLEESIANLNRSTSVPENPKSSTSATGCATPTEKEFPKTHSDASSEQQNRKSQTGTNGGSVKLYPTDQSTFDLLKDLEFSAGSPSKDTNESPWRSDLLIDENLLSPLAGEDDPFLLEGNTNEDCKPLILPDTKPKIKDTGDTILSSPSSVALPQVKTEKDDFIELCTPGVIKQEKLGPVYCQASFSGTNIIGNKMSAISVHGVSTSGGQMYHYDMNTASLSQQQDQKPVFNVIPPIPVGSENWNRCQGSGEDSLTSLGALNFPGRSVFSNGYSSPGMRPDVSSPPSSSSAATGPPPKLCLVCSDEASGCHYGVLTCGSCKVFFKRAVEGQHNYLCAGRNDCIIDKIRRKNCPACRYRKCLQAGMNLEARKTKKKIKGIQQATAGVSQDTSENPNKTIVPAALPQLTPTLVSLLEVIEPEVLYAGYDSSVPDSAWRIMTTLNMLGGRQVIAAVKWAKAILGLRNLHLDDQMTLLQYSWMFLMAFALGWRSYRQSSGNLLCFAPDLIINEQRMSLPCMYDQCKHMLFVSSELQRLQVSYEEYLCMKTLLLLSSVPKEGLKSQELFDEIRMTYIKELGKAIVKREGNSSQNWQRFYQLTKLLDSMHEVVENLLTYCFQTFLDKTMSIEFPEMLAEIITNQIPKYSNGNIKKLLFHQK

[2] = Half-life period was determined; type: ADME
[3] = target: T2, Glucocorticoid receptor (Homo sapiens, UniProt P04150); experiment: Inhibition of Dexamethasone stimulated transcriptional activity in CHO cells expressing glucocorticoid receptor; type: functional, cell-based
T2 sequence (P04150 whole entry): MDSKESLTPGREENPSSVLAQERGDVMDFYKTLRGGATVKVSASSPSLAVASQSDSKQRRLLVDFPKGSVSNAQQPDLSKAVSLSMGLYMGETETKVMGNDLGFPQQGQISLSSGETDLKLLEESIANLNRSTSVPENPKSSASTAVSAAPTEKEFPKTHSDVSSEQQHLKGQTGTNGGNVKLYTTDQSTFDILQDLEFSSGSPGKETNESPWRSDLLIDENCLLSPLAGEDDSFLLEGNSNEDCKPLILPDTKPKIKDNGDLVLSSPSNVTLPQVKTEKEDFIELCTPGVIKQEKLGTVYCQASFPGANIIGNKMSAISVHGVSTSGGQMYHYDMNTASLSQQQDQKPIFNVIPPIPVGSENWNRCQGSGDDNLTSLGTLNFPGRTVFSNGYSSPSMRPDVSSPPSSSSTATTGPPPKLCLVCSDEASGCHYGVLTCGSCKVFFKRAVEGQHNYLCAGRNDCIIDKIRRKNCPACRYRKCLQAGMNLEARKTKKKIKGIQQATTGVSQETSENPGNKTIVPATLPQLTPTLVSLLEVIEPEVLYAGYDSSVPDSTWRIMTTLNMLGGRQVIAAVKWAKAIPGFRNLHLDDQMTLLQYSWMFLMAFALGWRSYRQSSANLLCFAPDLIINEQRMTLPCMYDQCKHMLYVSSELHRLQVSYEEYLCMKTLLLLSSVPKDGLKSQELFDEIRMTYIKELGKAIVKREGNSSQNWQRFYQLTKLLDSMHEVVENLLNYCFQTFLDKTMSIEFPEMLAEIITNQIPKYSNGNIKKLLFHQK

[4] = Plasma clearance by iv administration at a dose 5 mg/kg; conditions: read-out: Clp (converted)
[5] = Plasma concentration at 7 hr after intravenous dosing; type: ADME
[6] = target: T2, Glucocorticoid receptor; experiment: Inhibition of Dexamethasone binding to Glucocorticoid receptor

- IC50 [1]: 2800 nM
- half-life [2]: 1.8 h
- IC50 [3]: 550 nM
- clearance [4]: 88.3 mL/min/kg
- concentration at 7 h [5]: 3 ng/mL
- IC50 [6]: 16.7 nM
Structure (SMILES): CC#C[C@]1(O)CC[C@H]2[C@@H]3CCC4=CC(=O)CCC4=C3[C@@H](c3ccc(N(C)CCCC4OC(C(=O)O)C(O)C(O)C4O)cc3)C[C@@]21C (stereo partly specified)
